Assay: Shake-flask solubility of acetaminophen in aqueous protic ionic liquid solutions (UV-vis at 243 nm)
Type: physicochemical
Protocol: The experimental solubility results were determined using a variety of techniques, including the shake-flask method. Aqueous binary mixtures based on PILs have been made utilizing an analytical balance with a 10^–4 g precision for determining the solubility results. Glass vials with a specific amount of water + PILs were filled with the extra acetaminophen. Following that, the samples were combined for 3 h and left for three days in a water bath thermostat (ED, Julabo Co., Germany) with temperature control and an uncertainty of 0.01 K. To separate the liquid and solid phases, a Hettich D-7200 centrifuge was employed (with 4000 RPM at room temperature at 10 min). An ethanol + water solution was applied to dilute the liquid phase after the saturated solutions were filtered through a […] PTFE filter. Subsequently, the drug concentration in the solutions was ascertained using a calibration curve and a UV–vis spectrometer at 243 nm.

Structure (SMILES): CC(=O)Nc1ccc(O)cc1 [ACP, Acetaminophen]
- solubility 10^5x1^exp (water+[DEA]La w3=0.0000 298.15 K 866 hPa): 1.839 mole fraction x10^5
- solubility 10^5x1^exp (water+[DEA]La w3=0.0000 303.15 K 866 hPa): 2.239 mole fraction x10^5
- solubility 10^5x1^exp (water+[DEA]La w3=0.0000 308.15 K 866 hPa): 2.545 mole fraction x10^5
- solubility 10^5x1^exp (water+[DEA]La w3=0.0000 313.15 K 866 hPa): 3.009 mole fraction x10^5
- solubility 10^5x1^exp (water+[DEA]La w3=0.0200 298.15 K 866 hPa): 2.492 mole fraction x10^5
- solubility 10^5x1^exp (water+[DEA]La w3=0.0200 303.15 K 866 hPa): 3.159 mole fraction x10^5
- solubility 10^5x1^exp (water+[DEA]La w3=0.0200 308.15 K 866 hPa): 3.555 mole fraction x10^5
- solubility 10^5x1^exp (water+[DEA]La w3=0.0200 313.15 K 866 hPa): 3.722 mole fraction x10^5
- solubility 10^5x1^exp (water+[DEA]La w3=0.0500 298.15 K 866 hPa): 3.181 mole fraction x10^5
- solubility 10^5x1^exp (water+[DEA]La w3=0.0500 303.15 K 866 hPa): 3.576 mole fraction x10^5
- solubility 10^5x1^exp (water+[DEA]La w3=0.0500 308.15 K 866 hPa): 3.917 mole fraction x10^5
- solubility 10^5x1^exp (water+[DEA]La w3=0.0500 313.15 K 866 hPa): 4.227 mole fraction x10^5
- solubility 10^5x1^exp (water+[DEA]La w3=0.0700 298.15 K 866 hPa): 3.452 mole fraction x10^5
- solubility 10^5x1^exp (water+[DEA]La w3=0.0700 303.15 K 866 hPa): 3.977 mole fraction x10^5
- solubility 10^5x1^exp (water+[DEA]La w3=0.0700 308.15 K 866 hPa): 4.167 mole fraction x10^5
- solubility 10^5x1^exp (water+[DEA]La w3=0.0700 313.15 K 866 hPa): 4.514 mole fraction x10^5
- solubility 10^5x1^exp (water+[DEA]La w3=0.1000 298.15 K 866 hPa): 3.849 mole fraction x10^5
- solubility 10^5x1^exp (water+[DEA]La w3=0.1000 303.15 K 866 hPa): 4.220 mole fraction x10^5
- solubility 10^5x1^exp (water+[DEA]La w3=0.1000 308.15 K 866 hPa): 4.793 mole fraction x10^5
- solubility 10^5x1^exp (water+[DEA]La w3=0.1000 313.15 K 866 hPa): 5.266 mole fraction x10^5
- solubility 10^5x1^exp (water+[DEA]La w3=0.1500 298.15 K 866 hPa): 4.290 mole fraction x10^5
- solubility 10^5x1^exp (water+[DEA]La w3=0.1500 303.15 K 866 hPa): 4.611 mole fraction x10^5
- solubility 10^5x1^exp (water+[DEA]La w3=0.1500 308.15 K 866 hPa): 5.038 mole fraction x10^5
- solubility 10^5x1^exp (water+[DEA]La w3=0.1500 313.15 K 866 hPa): 5.633 mole fraction x10^5
- solubility 10^5x1^exp (water+[DEA]La w3=0.2000 298.15 K 866 hPa): 4.669 mole fraction x10^5
- solubility 10^5x1^exp (water+[DEA]La w3=0.2000 303.15 K 866 hPa): 5.223 mole fraction x10^5
- solubility 10^5x1^exp (water+[DEA]La w3=0.2000 308.15 K 866 hPa): 5.710 mole fraction x10^5
- solubility 10^5x1^exp (water+[DEA]La w3=0.2000 313.15 K 866 hPa): 6.188 mole fraction x10^5
- solubility 10^5x1^exp (water+[MEA]La w3=0.0000 298.15 K 866 hPa): 1.839 mole fraction x10^5
- solubility 10^5x1^exp (water+[MEA]La w3=0.0000 303.15 K 866 hPa): 2.239 mole fraction x10^5
- solubility 10^5x1^exp (water+[MEA]La w3=0.0000 308.15 K 866 hPa): 2.545 mole fraction x10^5
- solubility 10^5x1^exp (water+[MEA]La w3=0.0000 313.15 K 866 hPa): 3.009 mole fraction x10^5
- solubility 10^5x1^exp (water+[MEA]La w3=0.0200 298.15 K 866 hPa): 2.750 mole fraction x10^5
- solubility 10^5x1^exp (water+[MEA]La w3=0.0200 303.15 K 866 hPa): 3.417 mole fraction x10^5
- solubility 10^5x1^exp (water+[MEA]La w3=0.0200 308.15 K 866 hPa): 3.802 mole fraction x10^5
- solubility 10^5x1^exp (water+[MEA]La w3=0.0200 313.15 K 866 hPa): 4.007 mole fraction x10^5
- solubility 10^5x1^exp (water+[MEA]La w3=0.0500 298.15 K 866 hPa): 3.256 mole fraction x10^5
- solubility 10^5x1^exp (water+[MEA]La w3=0.0500 303.15 K 866 hPa): 3.861 mole fraction x10^5
- solubility 10^5x1^exp (water+[MEA]La w3=0.0500 308.15 K 866 hPa): 4.055 mole fraction x10^5
- solubility 10^5x1^exp (water+[MEA]La w3=0.0500 313.15 K 866 hPa): 4.320 mole fraction x10^5
- solubility 10^5x1^exp (water+[MEA]La w3=0.0700 298.15 K 866 hPa): 3.884 mole fraction x10^5
- solubility 10^5x1^exp (water+[MEA]La w3=0.0700 303.15 K 866 hPa): 4.588 mole fraction x10^5
- solubility 10^5x1^exp (water+[MEA]La w3=0.0700 308.15 K 866 hPa): 4.675 mole fraction x10^5
- solubility 10^5x1^exp (water+[MEA]La w3=0.0700 313.15 K 866 hPa): 5.025 mole fraction x10^5
- solubility 10^5x1^exp (water+[MEA]La w3=0.1000 298.15 K 866 hPa): 4.380 mole fraction x10^5
- solubility 10^5x1^exp (water+[MEA]La w3=0.1000 303.15 K 866 hPa): 4.807 mole fraction x10^5
- solubility 10^5x1^exp (water+[MEA]La w3=0.1000 308.15 K 866 hPa): 5.407 mole fraction x10^5
- solubility 10^5x1^exp (water+[MEA]La w3=0.1000 313.15 K 866 hPa): 5.600 mole fraction x10^5
- solubility 10^5x1^exp (water+[MEA]La w3=0.1500 298.15 K 866 hPa): 4.962 mole fraction x10^5
- solubility 10^5x1^exp (water+[MEA]La w3=0.1500 303.15 K 866 hPa): 5.658 mole fraction x10^5
- solubility 10^5x1^exp (water+[MEA]La w3=0.1500 308.15 K 866 hPa): 6.128 mole fraction x10^5
- solubility 10^5x1^exp (water+[MEA]La w3=0.1500 313.15 K 866 hPa): 6.665 mole fraction x10^5
- solubility 10^5x1^exp (water+[MEA]La w3=0.2000 298.15 K 866 hPa): 5.589 mole fraction x10^5
- solubility 10^5x1^exp (water+[MEA]La w3=0.2000 303.15 K 866 hPa): 6.123 mole fraction x10^5
- solubility 10^5x1^exp (water+[MEA]La w3=0.2000 308.15 K 866 hPa): 6.695 mole fraction x10^5
- solubility 10^5x1^exp (water+[MEA]La w3=0.2000 313.15 K 866 hPa): 7.337 mole fraction x10^5
- solubility 10^5x1^exp (water+[TEA]La w3=0.0000 298.15 K 866 hPa): 1.839 mole fraction x10^5
- solubility 10^5x1^exp (water+[TEA]La w3=0.0000 303.15 K 866 hPa): 2.239 mole fraction x10^5
- solubility 10^5x1^exp (water+[TEA]La w3=0.0000 308.15 K 866 hPa): 2.545 mole fraction x10^5
- solubility 10^5x1^exp (water+[TEA]La w3=0.0000 313.15 K 866 hPa): 3.009 mole fraction x10^5
- solubility 10^5x1^exp (water+[TEA]La w3=0.0200 298.15 K 866 hPa): 2.161 mole fraction x10^5
- solubility 10^5x1^exp (water+[TEA]La w3=0.0200 303.15 K 866 hPa): 2.632 mole fraction x10^5
- solubility 10^5x1^exp (water+[TEA]La w3=0.0200 308.15 K 866 hPa): 2.940 mole fraction x10^5
- solubility 10^5x1^exp (water+[TEA]La w3=0.0200 313.15 K 866 hPa): 3.334 mole fraction x10^5
- solubility 10^5x1^exp (water+[TEA]La w3=0.0500 298.15 K 866 hPa): 2.597 mole fraction x10^5
- solubility 10^5x1^exp (water+[TEA]La w3=0.0500 303.15 K 866 hPa): 2.944 mole fraction x10^5
- solubility 10^5x1^exp (water+[TEA]La w3=0.0500 308.15 K 866 hPa): 3.210 mole fraction x10^5
- solubility 10^5x1^exp (water+[TEA]La w3=0.0500 313.15 K 866 hPa): 3.521 mole fraction x10^5
- solubility 10^5x1^exp (water+[TEA]La w3=0.0700 298.15 K 866 hPa): 2.908 mole fraction x10^5
- solubility 10^5x1^exp (water+[TEA]La w3=0.0700 303.15 K 866 hPa): 3.461 mole fraction x10^5
- solubility 10^5x1^exp (water+[TEA]La w3=0.0700 308.15 K 866 hPa): 3.584 mole fraction x10^5
- solubility 10^5x1^exp (water+[TEA]La w3=0.0700 313.15 K 866 hPa): 3.929 mole fraction x10^5
- solubility 10^5x1^exp (water+[TEA]La w3=0.1000 298.15 K 866 hPa): 3.094 mole fraction x10^5
- solubility 10^5x1^exp (water+[TEA]La w3=0.1000 303.15 K 866 hPa): 3.834 mole fraction x10^5
- solubility 10^5x1^exp (water+[TEA]La w3=0.1000 308.15 K 866 hPa): 4.208 mole fraction x10^5
- solubility 10^5x1^exp (water+[TEA]La w3=0.1000 313.15 K 866 hPa): 4.349 mole fraction x10^5
- solubility 10^5x1^exp (water+[TEA]La w3=0.1500 298.15 K 866 hPa): 3.958 mole fraction x10^5
- solubility 10^5x1^exp (water+[TEA]La w3=0.1500 303.15 K 866 hPa): 4.151 mole fraction x10^5
- solubility 10^5x1^exp (water+[TEA]La w3=0.1500 308.15 K 866 hPa): 4.940 mole fraction x10^5
- solubility 10^5x1^exp (water+[TEA]La w3=0.1500 313.15 K 866 hPa): 5.167 mole fraction x10^5
- solubility 10^5x1^exp (water+[TEA]La w3=0.2000 298.15 K 866 hPa): 4.309 mole fraction x10^5
- solubility 10^5x1^exp (water+[TEA]La w3=0.2000 303.15 K 866 hPa): 4.778 mole fraction x10^5
- solubility 10^5x1^exp (water+[TEA]La w3=0.2000 308.15 K 866 hPa): 5.362 mole fraction x10^5
- solubility 10^5x1^exp (water+[TEA]La w3=0.2000 313.15 K 866 hPa): 5.751 mole fraction x10^5
